Source: patent US10695314B2, “Antimicrobial composition containing 7,10-epoxyoctadeca-7,9-dienoic acid as active ingredient” (priority 2016, dated 2020)
Converted amounts (≈) assume the structure as drawn. Where two headings read alike, the source gives them in different places. One block for each compound: values may come before it.

Legend:
[1] = system: MDRSA 01ST001; assay: Agar disk diffusion analysis, zone of inhibition (ZOI); type: cell-based, Staphylococcus aureus; details: for antimicrobial activity, disk diffusion: 100 μg each, FIG. 4; for antimicrobial activity effect in combination with 7,10-EODA: antibiotic treated in combination with 7,10-EODA, Table 1 summary; for ZOI without 7.10-EODA / ZOI with 7.10-EODA: strain 001; for ZOI without 7.10-EODA: antibiotic ½×MIC alone; for ZOI with 7.10-EODA: antibiotic ½×MIC with 7,10-EODA ¼×MIC
Protocol: (§1) For synergy effect screening, a 0.1 mL aliquot of MRSA or MSSA strain (5×10^5 CFU/mL) cultured in a log-phase on TSA plates was inoculated. […] A disk including DMSO alone or 7,10-EODA alone (¼×MIC) was used as a control group. The plates were cultured under conditions of […] and 24 hours, and a synergistic effect was observed when the disk periphery including both antibiotic and 7,10-EODA was at least 5 mm in zone of inhibition (ZOI).
Specifically, in order to compare the antimicrobial activity of the 7,10-EODA or the antibiotic of the present invention against the MDRSA 01ST001 strain, the MDRSA 01ST001 strain was treated with the 7,10-EODA (E 100 μg) of the present invention, streptomycin (S, 100 μg), ampicillin (A, 100 μg), oxacillin (O, 100 μg), vancomycin (V, 100 μg), or penicillin (P, 100 μg), according to the method described in Experimental Example 5.
(§2) Specifically, the minimal inhibitory concentration (MIC) was measured according to the method of Experimental Example 4 above, and the degree of inhibition (Agar diffusion analysis) (zone of inhibition; ZOI) was measured according to the method of Experimental Example 5 above.

[2] = system: MDRSA 01ST001; assay: Minimal inhibitory concentration (MIC), broth microdilution per CLSI
[3] = system: Staphylococcus aureus ATCC 29213; assay: as above; type: cell-based; details: strain 29213 (ATCC 29213), antibiotic alone
Protocol: The minimum inhibitory concentration (MIC) of antibiotics and the activity of 7,10-EODA of the present invention against Staphylococcus aureus strains were measured according to the CLSI guideline (CLSI document M100-517, 2007). Specifically, each antibiotic or 7,10-EODA was diluted 2-fold (200-0.97 μg/mL) by adding MHB (Mueller-Hinton Broth) to a 96-well microtiter plate. In the mid-exponential phase (0.5 OD600), the culture was diluted 10-fold with MHB and 0.1 mL aliquots of the diluent were added to wells containing the serially diluted test reagent and cultured at 37° C. for 12 hours. About the end of the culture period, the cell density was measured at an optical density of 600 nm (OD600) using a […].
as §2

[4] = system: MRSA 01ST001 (MDRSA 01ST001); assay: Antimicrobial activity on solid medium (clear zone around filter paper); type: cell-based, Staphylococcus aureus; details: for clear zone on agar plate: 100 μg per filter paper, 37° C., 2 to 3 days, FIG. 1
Protocol: (§3) First, 1.5% of potato agar was added to the YDP medium, sterilized, and then an agar plate hardened by pouring about 20 ml in a plastic Petri dish was used. MRSA 01ST001 was diluted to about 107/ml, and then about 500 μl was dispersed evenly on the agar plate.
(§4) The size of the clear zone around the filter paper shown after the culture at 37° C. for 2 to 3 days after the inoculation was measured to confirm the degree of antimicrobial activity. At this time, vancomycin 100 μg, oxacillin 100 μg, ampicillin 100 μg, streptomycin 100 μg, and penicillin 100 μg were used as control groups.
(§5) The antimicrobial activity can be confirmed with the degree showing the clear zone on the agar plate. It is judged that the larger the clear zone, the higher the antimicrobial activity. The results are illustrated in FIG. 1 and FIG. 2.
(§6) The results are illustrated in FIG. 3. The experiment was carried out in the same manner as in Example 1-2.

[5] = system: Staphylococcus aureus ATCC 29213; assay: Agar disk diffusion analysis, zone of inhibition (ZOI); type: cell-based; details: strain 29213; for ZOI without 7.10-EODA: antibiotic ½×MIC alone; for ZOI with 7.10-EODA: antibiotic ½×MIC with 7,10-EODA ¼×MIC
Protocol: as §1, §2

[6] = system: Staphylococcus aureus ATCC 29213; assay: Antimicrobial activity on solid medium (clear zone around filter paper); type: cell-based; details: FIG. 3
Protocol: as §3, §4, §5, §6

[7] = strain 001 (MDRSA 01ST001), antibiotic alone
[8] = Staphylococcus aureus, ATCC29213, read-out: MIC

Compound: penicillin
antimicrobial activity, disk diffusion [1]: resistant
antimicrobial activity effect in combination with 7,10-EODA [1]: strong antimicrobial activity effect
ZOI without 7.10-EODA [1]: 7.1 ± 0.1 mm
ZOI with 7.10-EODA [1]: 13.6 mm
degree of decrease of the MIC90 value of penicillin versus no 7,10-EODA ([2]; 7,10-EODA at 1/16 of its original MIC90): 1/32
degree of decrease of the MIC90 value of penicillin versus no 7,10-EODA ([2]; 7,10-EODA at ⅛ of its original MIC90): ¼
MIC90 value of penicillin ([2]; 7,10-EODA not used in combination, OD600): 350 µg/mL
MIC90 value of penicillin ([2]; in combination with 7.5 μg/mL 7,10-EODA (1/16 of its MIC90)): 87.5 µg/mL
MIC90 value of penicillin ([2]; in combination with 15.0 μg/mL 7,10-EODA (⅛ of its MIC90)): 10.9 µg/mL
MIC [2, 7]: 1000.0 µg/mL
MIC [3]: 0.5 µg/mL
clear zone on agar plate [4]: no clear zone appeared
ZOI without 7.10-EODA [5]: 12.9 ± 0.4 mm
ZOI with 7.10-EODA [5]: 13.2 mm

Compound: Oc1cc(Cl)ccc1Oc1ccc(Cl)cc1Cl [IRG, irgasan]
ZOI without 7.10-EODA [1]: 12.4 ± 0.3 mm
ZOI with 7.10-EODA [1]: 13.8 mm
MIC [2, 7]: 0.1 µg/mL (≈ 0.345 µM)
MIC [3]: 0.1 µg/mL (≈ 0.345 µM)
ZOI without 7.10-EODA [5]: 11.1 ± 0.5 mm
ZOI with 7.10-EODA [5]: 10.0 mm

MIC ([2]; Staphylococcus aureus): 1000 µg/mL (≈ 2880 µM)
MIC [3, 8]: 1.97 µg/mL (≈ 5.67 µM)
Compound: CC1=C(C(=O)O)N2C(=O)[C@@H](NC(=O)[C@H](N)c3ccccc3)[C@H]2SC1 [CEP, cephalexin]
ZOI without 7.10-EODA [1]: 10.1 ± 1.3 mm
ZOI with 7.10-EODA [1]: 13.1 mm
ZOI without 7.10-EODA [5]: 15.3 ± 0.1 mm
ZOI with 7.10-EODA [5]: 15.3 mm

Compound: CN[C@H](CC(C)C)C(=O)N[C@H]1C(=O)N[C@@H](CC(N)=O)C(=O)N[C@H]2C(=O)N[C@H]3C(=O)N[C@H](C(=O)N[C@H](C(=O)O)c4cc(O)cc(O)c4-c4cc3ccc4O)[C@H](O)c3ccc(c(Cl)c3)Oc3cc2cc(c3O[C@@H]2O[C@H](CO)[C@@H](O)[C@H](O)[C@H]2O[C@H]2C[C@](C)(N)[C@H](O)[C@H](C)O2)Oc2ccc(cc2Cl)[C@H]1O [vancomycin]
clear zone on agar plate [4]: clear zone appeared
antimicrobial activity on solid medium ([4]; MDRSA 01ST001, FIG. 3): same antimicrobial activity
antimicrobial activity on solid medium [6]: same antimicrobial activity

Compound: [H]/N=C(/N)N[C@H]1[C@H](O)[C@@H](O)[C@H](O[C@@H]2O[C@@H](C)[C@](O)(C=O)[C@H]2O[C@@H]2O[C@@H](CO)[C@H](O)[C@@H](O)[C@@H]2NC)[C@@H](N/C(N)=N\[H])[C@@H]1O [STP, streptomycin]
antimicrobial activity, disk diffusion [1]: resistant
antimicrobial activity effect in combination with 7,10-EODA [1]: strong antimicrobial activity effect
ZOI without 7.10-EODA [1]: 6.0 ± 0.0 mm
ZOI with 7.10-EODA [1]: 12.9 mm
MIC ([2]; Staphylococcus aureus): 62.5 µg/mL (≈ 107 µM)
MIC [3, 8]: 3 µg/mL (≈ 5.16 µM)
clear zone on agar plate [4]: no clear zone appeared
ZOI without 7.10-EODA [5]: 6.0 ± 0.0 mm
ZOI with 7.10-EODA [5]: 11.4 mm

MIC ([2]; Staphylococcus aureus): 62.5 µg/mL (≈ 196 µM)
MIC [3, 8]: 125 µg/mL (≈ 392 µM)
Compound: CN(C)CCCN1c2ccccc2Sc2ccc(Cl)cc21 [CPZ, chlorpromazine]
ZOI without 7.10-EODA [1]: 7.2 ± 0.1 mm
ZOI with 7.10-EODA [1]: 12.0 mm
ZOI without 7.10-EODA [5]: 6.0 ± 0.0 mm
ZOI with 7.10-EODA [5]: 8.05 mm

Compound: CO[C@H]1/C=C/O[C@@]2(C)Oc3c(C)c(O)c4c(O)c(c(/C=N/N5CCN(C)CC5)c(O)c4c3C2=O)NC(=O)/C(C)=C\C=C\[C@H](C)[C@H](O)[C@@H](C)[C@@H](O)[C@@H](C)[C@H](OC(C)=O)[C@@H]1C [RIF, rifampicin]
ZOI without 7.10-EODA [1]: 18.3 ± 0.2 mm
ZOI with 7.10-EODA [1]: 20.2 mm
MIC ([2]; Staphylococcus aureus): 5 µg/mL (≈ 6.08 µM)
MIC [3, 8]: 5 µg/mL (≈ 6.08 µM)
ZOI without 7.10-EODA [5]: 21.0 ± 0.8 mm

Compound: O=C(O)c1cn(C2CC2)c2cc(N3CCNCC3)c(F)cc2c1=O [CIP, ciprofloxacin]
antimicrobial activity effect in combination with 7,10-EODA [1]: strong antimicrobial activity effect
ZOI without 7.10-EODA [1]: 6.0 ± 0.0 mm
ZOI with 7.10-EODA [1]: 13.2 mm
ZOI without 7.10-EODA [5]: 9.6 ± 0.2 mm
ZOI with 7.10-EODA [5]: 13.2 mm

Compound: O=C(N[C@H](CO)[C@H](O)c1ccc([N+](=O)[O-])cc1)C(Cl)Cl [CPL, chloramphenicol]
ZOI without 7.10-EODA [1]: 13.2 ± 0.4 mm
ZOI with 7.10-EODA [1]: 13.9 mm
MIC ([2]; Staphylococcus aureus): 10 µg/mL (≈ 30.9 µM)
MIC [3, 8]: 10 µg/mL (≈ 30.9 µM)
ZOI without 7.10-EODA [5]: 7.4 ± 0.2 mm
ZOI with 7.10-EODA [5]: 7.21 mm

MIC ([2]; Staphylococcus aureus): 7.8 µg/mL (≈ 26.9 µM)
MIC [3, 8]: 7.8 µg/mL (≈ 26.9 µM)
Compound: COc1cc(Cc2cnc(N)nc2N)cc(OC)c1OC [TMP, trimethoprim]
ZOI without 7.10-EODA [1]: 6.0 ± 0.0 mm
ZOI with 7.10-EODA [1]: 6.00 mm
ZOI without 7.10-EODA [5]: 8.9 ± 0.1 mm
ZOI with 7.10-EODA [5]: 12.3 mm
